Laboratory results reported in patent US20080032978A1, “SOLUBLE EPOXIDE HYDROLASE INHIBITORS” (Arete Therapeutics, Inc., priority 2006, published 2008).

Test system: soluble epoxide hydrolase (sEH)
Experiment: Fluorescent assay for mouse and human soluble epoxide hydrolase (CMNPC substrate)
Assay type: biochemical
Settings: Conc of I 50 nM
Excerpt: Fluorescent Assay for Mouse and Human Soluble Epoxide Hydrolase Recombinant mouse sEH (MsEH) and human sEH (HsEH) were produced in a baculovirus expression system as previously reported. Grant et al., J. Biol. Chem., 268:17628-17633 (1993); Beetham et al., Arch. Biochem. Biophys., 305:197-201 (1993). The expressed proteins were purified from cell lysate by affinity chromatography. Wixtrom et al., Anal. […] Protein concentration was quantified using the Pierce BCA assay using bovine serum albumin as the calibrating standard. […] Solutions: Bis/Tris HCl 25 mM 7.0 containing 0.1 mg/mL of BSA (buffer […] at 0.25 mM in DMSO. Mother solution of enzyme in buffer A (Mouse sEH at 6 μg/mL and Human sEH at 5 μg/mL). Inhibitor dissolved in DMSO at the appropriate concentration. Protocol: In a black 96 well plate, fill all the wells with 150 μL of buffer A. Add 2 μL of DMSO in well A2 and A3, and then add 2 μL of inhibitor solution in A1 and A4 through A12. Add 150 μL of buffer A in a row A, then mix several time and transfer 150 μL to row B. Repeat this operation up to row H. The 150 μL removed from row H go to the trash. Add 20 μL of buffer A in column 1 and 2, then add 20 μL of enzyme solution to column 3 to 12. Incubate the plate for 5 minutes in the plate reader at 30° C. During incubation prepare the working solution of substrate by mixing 3.68 mL of buffer A (4×0.920 mL) with 266 μL (2×133 μL) of substrate solution). At t=0, add 30 μL of working substrate solution with multi-channel pipette labeled “Briggs 303” and start the reading ([S]final: 5 μM). Read with ex: 330 nm (20 nm) and em: 465 nm (20 nm) every 30 second for 10 minutes. The velocities are used to analyze and calculate the IC50s.

% I [%]	Structure (SMILES)
74	O=C(Nc1ccc(Cl)cc1)Nc1ccc(C(=O)N2CCOCC2)c(F)c1 [Compound 14, 1-(4-Chloro-phenyl)-3-[3-fluoro-4-(morpholine-4-carbonyl)-phenyl]-urea]
87	O=C(Nc1ccc(C(F)(F)F)cc1)Nc1ccc(F)c(C(=O)N2CCOCC2)c1 [Compound 16, 1-[4-Fluoro-3-(morpholine-4-carbonyl)-phenyl]-3-(4-trifluoromethyl-phenyl)-urea]
89	O=C(Nc1ccc(C(=O)N2CCOCC2)cc1)Nc1ccc(C(F)(F)F)cc1 [Compound 17, 1-[4-(Morpholine-4-carbonyl)-phenyl]-3-(4-trifluoromethyl-phenyl)-urea]
75	CN1CCN(C(=O)c2ccc(NC(=O)Nc3ccc(C(F)(F)F)cc3)cc2)CC1 [Compound 18, 1-[4-(4-Methyl-piperazine-1-carbonyl)-phenyl]-3-(4-trifluoromethyl-phenyl)-urea]
97	O=C(Nc1ccc(C(F)(F)F)cc1)Nc1ccc(C(=O)N2CCOCC2)c(F)c1 [Compound 22, 1-[3-Fluoro-4-(morpholine-4-carbonyl)-phenyl]-3-(4-trifluoromethyl-phenyl)-urea]

Same assay, conditions: Conc of I 500 nM

% I [%]	Structure (SMILES)
94	O=C(Nc1ccc(Cl)cc1)Nc1ccc(C(=O)N2CCOCC2)cc1 [Compound 2, 1-(4-Chloro-phenyl)-3-[4-(morpholine-4-carbonyl)-phenyl]-urea]
88	O=C(Nc1ccc(Cl)cc1)Nc1cccc(C(=O)N2CCOCC2)c1 [Compound 3, 1-(4-Chloro-phenyl)-3-[3-(morpholine-4-carbonyl)-phenyl]-urea]
87	O=C(Nc1ccc(Cl)cc1)Nc1cccc(C(=O)N2CCC(N3CCOCC3)CC2)c1 [Compound 10, 1-(4-Chloro-phenyl)-3-[3-(4-morpholin-4-yl-piperidine-1-carbonyl)-phenyl]-urea]
99	O=C(Nc1ccc(C(F)(F)F)cc1)Nc1cccc(C(=O)N2CCOCC2)c1 [Compound 15, 1-[3-(Morpholine-4-carbonyl)-phenyl]-3-(4-trifluoromethyl-phenyl)-urea]
94	CN1CCN(C(=O)c2cccc(NC(=O)Nc3ccc(C(F)(F)F)cc3)c2)CC1 [Compound 19, 1-[3-(4-Methyl-piperazine-1-carbonyl)-phenyl]-3-(4-trifluoromethyl-phenyl)-urea]
76	O=C(NC1CCC(C(=O)N2CCC(C(=O)O)CC2)CC1)NC12CC3CC(CC(C3)C1)C2 (stereo not drawn) [Compound 21, 1-[4-(3-Adamantan-1-yl-ureido)-cyclohexanecarbonyl]-piperidine-4-carboxylic acid]
69	O=C(Nc1ccc(F)cc1)Nc1ccc(C(=O)N2CCOCC2)cc1 [Compound 23, 1-(4-Fluoro-phenyl)-3-[4-(morpholine-4-carbonyl)-phenyl]-urea]
64	CN1CCN(C(=O)c2ccc(NC(=O)Nc3ccc(F)cc3)cc2)CC1 [Compound 24, 1-(4-Fluoro-phenyl)-3-[4-(4-methyl-piperazine-1-carbonyl)-phenyl]-urea]

Same assay, conditions: Conc of I 5000 nM

% I [%]	Structure (SMILES)
97	O=C(Nc1ccccc1)Nc1ccc(C(=O)N2CCOCC2)cc1 [Compound 1, 1-[4-(Morpholine-4-carbonyl)-phenyl]-3-phenyl-urea]
93	CN(CC(=O)O)C(=O)c1ccc(NC(=O)NC23CC4CC(CC(C4)C2)C3)cc1 [Compound 6, {[4-(3-Adamantan-1-yl-ureido)-benzoyl]-methyl-amino}-acetic acid]
90	CN(CC(=O)O)C(=O)c1cccc(NC(=O)NC23CC4CC(CC(C4)C2)C3)c1 [Compound 7, {[3-(3-Adamantan-1-yl-ureido)-benzoyl]-methyl-amino}-acetic acid]
96	O=C(Nc1ccc(Cl)cc1)Nc1ccc(C(=O)N2CCC(N3CCOCC3)CC2)cc1 [Compound 8, 1-(4-Chloro-phenyl)-3-[4-(4-morpholin-4-yl-piperidine-1-carbonyl)-phenyl]-urea]
99	O=C(Nc1cccc(C(=O)N2CCC(C(=O)O)CC2)c1)NC12CC3CC(CC(C3)C1)C2 [Compound 13, 1-[3-(3-Adamantan-1-yl-ureido)-benzoyl]-piperidine-4-carboxylic acid]
